# Measured values taken from patent publication EP4745134A1 (Jiangsu Yahong Meditech Co., Ltd., priority 2023, dated 2025).
# Read-outs that look alike come from different tables or passages of the source.
# What was measured:
# [1] = molecular target: PRMT5-MTA (Homo sapiens, UniProt O14744); assay: Enzymatic inhibitory activity against PRMT5-MTA (AlphaScreen); format: biochemical
# Procedure, shortened: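 PRMT5/[…] (1 nM) was preincubated for 30 min at room temperature with 1 µM […] and 2.5 µM SAM, then exposed to compound (10-point, 3-fold from 1000 nM) for 15 min at 23 °C. Histone H4 substrate (5 nM) was added and reacted for 45 min at 23 °C. Symmetric dimethyl-R3 H4 was detected by AlphaScreen and IC50 calculated.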
# [2] = system: HCT116 MTAP KO cells; assay: Inhibitory activity against cell proliferation (CellTiter Glo, 6 days), HCT116 MTAP KO; format: cell-based; settings: for IC50: Homo sapiens, HCT-116, 144 h; for Selectivity HCT 116-WT/ HCT116 MTAP KO: ratio of IC50 HCT116-WT / HCT116 MTAP KO
# Procedure, shortened: (§1)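 HCT116 wild-type or MTAP-knockout cells (250/well, McCoy's 5A + 10% FBS) treated after overnight culture with 8-point 4-fold dilutions from 10000 nM for 6 days at 37 °C. Viability read by CellTiter Glo luminescence on day 7; IC50 calculated against DMSO controls.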
# [3] = system: HCT116-WT cells; assay: Inhibitory activity against cell proliferation (CellTiter Glo, 6 days), HCT116-WT; format: cell-based; settings: 144 h
# Procedure, shortened: as §1
# [4] = HCT116 MTAP KO cells, 6 days, CellTiter Glo, read-out: HCT116 MTAP KO IC50
# [5] = HCT116-WT cells, 6 days, CellTiter Glo, read-out: HCT116-WT IC50
# Sequence of PRMT5-MTA (O14744 whole entry): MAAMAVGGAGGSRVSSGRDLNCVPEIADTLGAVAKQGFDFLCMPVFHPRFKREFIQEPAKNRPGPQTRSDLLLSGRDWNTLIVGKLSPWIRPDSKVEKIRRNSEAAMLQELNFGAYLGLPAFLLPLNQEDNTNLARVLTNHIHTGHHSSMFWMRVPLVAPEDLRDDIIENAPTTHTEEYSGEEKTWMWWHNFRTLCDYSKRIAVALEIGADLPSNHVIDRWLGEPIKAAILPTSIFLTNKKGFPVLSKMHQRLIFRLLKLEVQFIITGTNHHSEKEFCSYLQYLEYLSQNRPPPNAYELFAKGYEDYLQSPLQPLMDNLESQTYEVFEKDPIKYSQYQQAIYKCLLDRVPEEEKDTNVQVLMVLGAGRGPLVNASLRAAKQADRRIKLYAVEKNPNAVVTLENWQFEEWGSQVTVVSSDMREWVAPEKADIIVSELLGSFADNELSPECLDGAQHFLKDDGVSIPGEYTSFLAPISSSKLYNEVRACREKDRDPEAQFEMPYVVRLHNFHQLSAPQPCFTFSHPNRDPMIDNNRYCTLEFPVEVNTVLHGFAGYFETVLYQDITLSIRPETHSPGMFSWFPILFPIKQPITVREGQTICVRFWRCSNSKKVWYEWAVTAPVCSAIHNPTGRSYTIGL
# Sequence of PRMT5-MTA (Q9BQA1 whole entry partner): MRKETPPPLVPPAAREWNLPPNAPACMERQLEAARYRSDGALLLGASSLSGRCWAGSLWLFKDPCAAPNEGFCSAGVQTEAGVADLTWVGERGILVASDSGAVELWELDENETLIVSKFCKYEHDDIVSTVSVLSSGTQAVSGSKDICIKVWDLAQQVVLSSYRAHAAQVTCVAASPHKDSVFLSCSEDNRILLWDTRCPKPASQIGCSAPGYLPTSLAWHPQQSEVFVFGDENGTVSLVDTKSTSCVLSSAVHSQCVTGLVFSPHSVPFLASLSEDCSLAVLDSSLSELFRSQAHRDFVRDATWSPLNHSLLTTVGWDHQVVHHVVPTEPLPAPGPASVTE
smiles,measurement,setting,value
"Cc1cc2cc(C(=O)N(Cc3ccc(C(F)(F)F)cn3)N(C)c3nccc4sccc34)ccc2nc1N [Example 271, 2-amino-N',3-dimethyl-N'-(thieno[3,2-c]pyridin-4-yl)-N-((5-(trifluoromethyl)pyridin-2-yl)methyl)quinoline-6-carbohydrazide]",IC50,[1]; read-out: IC50,2.7 nM
same,IC50,[2]; [4],89 nM
same,Selectivity HCT 116-WT/ HCT116 MTAP KO,[2],13.42
same,IC50,[3]; [5],1190 nM
"Cc1cc2cc(C(=O)N(Cc3ccc(C(F)(F)F)cn3)N(C)c3nccc4nc(C)c(C)nc34)ccc2nc1N [Example 272, 2-amino-N'-(2,3-dimethylpyrido[3,4-b]pyrazin-5-yl)-N',3-dimethyl-N-((5-(trifluoromethyl)pyridin-2-yl)methyl)quinoline-6-carbohydrazide]",IC50,[1]; read-out: IC50,2.6 nM
same,IC50,[2]; [4],242 nM
same,Selectivity HCT 116-WT/ HCT116 MTAP KO,[2],13.13
same,IC50,[3]; [5],3180 nM
"Cc1cc2cc(C(=O)N(Cc3ccc(C(F)F)cn3)N(C)c3ncccn3)ccc2nc1N [Example 273, 2-amino-N-((5-(difluoromethyl)pyridin-2-yl)methyl)-N',3-dimethyl-N'-(pyrimidin-2-yl)quinoline-6-carbohydrazide]",IC50,[1]; read-out: IC50,2.8 nM
same,IC50,[2]; [4],78 nM
same,Selectivity HCT 116-WT/ HCT116 MTAP KO,[2],29.27
same,IC50,[3]; [5],2280 nM
"Cc1cc2cc(C(=O)N(Cc3ccc(C(F)(F)F)cn3)N(C)c3nccc4ccsc34)ccc2nc1N [Example 274, 2-amino-N',3-dimethyl-N'-(thieno[2,3-c]pyridin-7-yl)-N-((5-(trifluoromethyl)pyridin-2-yl)methyl)quinoline-6-carbohydrazide]",IC50,[1]; read-out: IC50,3.7 nM
same,IC50,[2]; [4],167 nM
same,Selectivity HCT 116-WT/ HCT116 MTAP KO,[2],15.10
same,IC50,[3]; [5],2520 nM
"Cc1cnc(N(C)N(Cc2ccc(C(F)(F)F)cn2)C(=O)c2ccc3nc(N)c(C)cc3c2)nc1 [Example 276, 2-amino-N',3-dimethyl-N'-(5-methylpyrimidin-2-yl)-N-((5-(trifluoromethyl)pyridin-2-yl)methyl)quinoline-6-carbohydrazide]",IC50,[1]; read-out: IC50,1.6 nM
same,IC50,[2]; [4],80 nM
same,Selectivity HCT 116-WT/ HCT116 MTAP KO,[2],24.70
same,IC50,[3]; [5],1980 nM
"Cc1cc2cc(C(=O)N(Cc3ncc(Br)cc3F)N(C)c3ncccn3)ccc2nc1N [Example 277, 2-amino-N-((5-bromo-3-fluoropyridin-2-yl)methyl)-N',3-dimethyl-N'-(pyrimidin-2-yl)quinoline-6-carbohydrazide]",IC50,[1]; read-out: IC50,2.2 nM
same,IC50,[2]; [4],79 nM
same,Selectivity HCT 116-WT/ HCT116 MTAP KO,[2],24.23
same,IC50,[3]; [5],1910 nM
"Cc1cc2cc(C(=O)N(Cc3c(F)cc(Br)cc3F)N(C)c3ncccn3)ccc2nc1N [Example 278, 2-amino-N-(4-bromo-2,6-difluorobenzyl) -N',3-dimethyl-N'-(pyrimidin-2-yl)quinoline-6-carbohydrazide]",IC50,[1]; read-out: IC50,1.5 nM
same,IC50,[2]; [4],28 nM
same,Selectivity HCT 116-WT/ HCT116 MTAP KO,[2],14.11
same,IC50,[3]; [5],395 nM
Cc1cc2nc(N)c3cnn(C)c3c2cc1C(=O)N(C)N1CCc2ccccc21 [Example 279],IC50,[1],4.3 nM
same,IC50,[2]; read-out: HCT116 MTAP KO IC50 (nM),284 nM
same,IC50,[3]; read-out: HCT116-WT IC50 (nM),> 10000 nM
"COC1(c2ccc(CN(C(=O)c3ccc4nc(N)c(C)cc4c3)N(C)c3ncccn3)nc2)COC1 [Example 284, 2-amino-N-((5-(3-methoxyoxetan-3-yl)pyridin-2-yl)methyl)-N',3-dimethyl-N'-(pyrimidin-2-yl)quinoline-6-carbohydrazide]",IC50,[1]; read-out: IC50,2.3 nM
same,IC50,[2]; [4],194 nM
same,Selectivity HCT 116-WT/ HCT116 MTAP KO,[2],17.71
same,IC50,[3]; [5],3440 nM
"Cc1cc2cc(C(=O)N(Cc3ccc(C4(F)COC4)cn3)N(C)c3ncccn3)ccc2nc1N [Example 286, 2-amino-N-((5-(3-fluorooxetan-3-yl)pyridin-2-yl)methyl)-N',3-dimethyl-N'-(pyrimidin-2-yl)quinoline-6-carbohydrazide]",IC50,[1]; read-out: IC50,2.7 nM
same,IC50,[2]; [4],91 nM
same,Selectivity HCT 116-WT/ HCT116 MTAP KO,[2],26.60
same,IC50,[3]; [5],2420 nM
